Experimental data published in ChEMBL document CHEMBL1149491, “Novel tricyclic azepine derivatives: Biological evaluation of pyrimido[4,5-b]-1,4-benzoxazepines, thiazepines, and diazepines as inhibitors of the epidermal growth factor receptor tyrosine kinase” (Bioorg Med Chem Lett, 2006).

Key:
[1] = target: T1, Epidermal growth factor receptor (Homo sapiens, UniProt P00533); assay: Inhibition of EGFR measured as pGAT-biotin peptide phosphorylation in presence of 2.0 uM ATP by HTRF assay; type: functional
T1 sequence (P00533 whole entry): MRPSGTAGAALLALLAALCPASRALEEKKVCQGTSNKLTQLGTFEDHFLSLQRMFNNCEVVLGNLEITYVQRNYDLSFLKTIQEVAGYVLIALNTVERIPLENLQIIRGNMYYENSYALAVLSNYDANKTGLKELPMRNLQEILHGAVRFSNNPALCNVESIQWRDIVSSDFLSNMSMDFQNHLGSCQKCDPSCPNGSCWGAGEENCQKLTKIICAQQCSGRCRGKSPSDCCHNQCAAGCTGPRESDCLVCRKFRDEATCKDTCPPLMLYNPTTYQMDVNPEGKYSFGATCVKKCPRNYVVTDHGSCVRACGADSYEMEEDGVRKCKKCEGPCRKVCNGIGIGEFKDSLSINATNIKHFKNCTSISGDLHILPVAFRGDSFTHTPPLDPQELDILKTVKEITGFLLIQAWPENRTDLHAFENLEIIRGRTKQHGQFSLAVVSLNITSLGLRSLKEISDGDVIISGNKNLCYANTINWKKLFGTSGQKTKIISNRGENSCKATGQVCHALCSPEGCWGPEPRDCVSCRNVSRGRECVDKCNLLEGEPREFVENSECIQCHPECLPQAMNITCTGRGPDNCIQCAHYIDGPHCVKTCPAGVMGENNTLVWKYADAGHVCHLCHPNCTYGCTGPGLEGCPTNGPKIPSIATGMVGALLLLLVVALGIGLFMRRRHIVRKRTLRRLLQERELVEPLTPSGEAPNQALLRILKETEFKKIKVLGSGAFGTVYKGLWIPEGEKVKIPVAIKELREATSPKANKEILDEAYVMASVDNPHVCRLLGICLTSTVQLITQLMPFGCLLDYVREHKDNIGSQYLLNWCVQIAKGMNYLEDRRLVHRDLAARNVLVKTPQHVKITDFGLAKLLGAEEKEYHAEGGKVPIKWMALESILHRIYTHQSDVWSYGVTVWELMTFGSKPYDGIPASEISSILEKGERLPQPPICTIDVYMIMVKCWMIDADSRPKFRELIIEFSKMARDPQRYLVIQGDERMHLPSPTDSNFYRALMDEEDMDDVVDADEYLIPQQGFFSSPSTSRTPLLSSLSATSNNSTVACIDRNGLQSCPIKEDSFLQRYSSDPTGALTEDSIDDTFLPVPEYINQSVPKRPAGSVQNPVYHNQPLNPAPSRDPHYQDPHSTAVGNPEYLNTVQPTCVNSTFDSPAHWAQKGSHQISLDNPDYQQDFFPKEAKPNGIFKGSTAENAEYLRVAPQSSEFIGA

[2] = target: T1, Epidermal growth factor receptor; assay: Inhibition of EGFR autophosphorylation in DiFi cells by ELISA; type: functional, cell-based
[3] = target: Vascular endothelial growth factor receptor 2 (Homo sapiens, UniProt P35968)
Sequence of Vascular endothelial growth factor receptor 2 (P35968 whole entry): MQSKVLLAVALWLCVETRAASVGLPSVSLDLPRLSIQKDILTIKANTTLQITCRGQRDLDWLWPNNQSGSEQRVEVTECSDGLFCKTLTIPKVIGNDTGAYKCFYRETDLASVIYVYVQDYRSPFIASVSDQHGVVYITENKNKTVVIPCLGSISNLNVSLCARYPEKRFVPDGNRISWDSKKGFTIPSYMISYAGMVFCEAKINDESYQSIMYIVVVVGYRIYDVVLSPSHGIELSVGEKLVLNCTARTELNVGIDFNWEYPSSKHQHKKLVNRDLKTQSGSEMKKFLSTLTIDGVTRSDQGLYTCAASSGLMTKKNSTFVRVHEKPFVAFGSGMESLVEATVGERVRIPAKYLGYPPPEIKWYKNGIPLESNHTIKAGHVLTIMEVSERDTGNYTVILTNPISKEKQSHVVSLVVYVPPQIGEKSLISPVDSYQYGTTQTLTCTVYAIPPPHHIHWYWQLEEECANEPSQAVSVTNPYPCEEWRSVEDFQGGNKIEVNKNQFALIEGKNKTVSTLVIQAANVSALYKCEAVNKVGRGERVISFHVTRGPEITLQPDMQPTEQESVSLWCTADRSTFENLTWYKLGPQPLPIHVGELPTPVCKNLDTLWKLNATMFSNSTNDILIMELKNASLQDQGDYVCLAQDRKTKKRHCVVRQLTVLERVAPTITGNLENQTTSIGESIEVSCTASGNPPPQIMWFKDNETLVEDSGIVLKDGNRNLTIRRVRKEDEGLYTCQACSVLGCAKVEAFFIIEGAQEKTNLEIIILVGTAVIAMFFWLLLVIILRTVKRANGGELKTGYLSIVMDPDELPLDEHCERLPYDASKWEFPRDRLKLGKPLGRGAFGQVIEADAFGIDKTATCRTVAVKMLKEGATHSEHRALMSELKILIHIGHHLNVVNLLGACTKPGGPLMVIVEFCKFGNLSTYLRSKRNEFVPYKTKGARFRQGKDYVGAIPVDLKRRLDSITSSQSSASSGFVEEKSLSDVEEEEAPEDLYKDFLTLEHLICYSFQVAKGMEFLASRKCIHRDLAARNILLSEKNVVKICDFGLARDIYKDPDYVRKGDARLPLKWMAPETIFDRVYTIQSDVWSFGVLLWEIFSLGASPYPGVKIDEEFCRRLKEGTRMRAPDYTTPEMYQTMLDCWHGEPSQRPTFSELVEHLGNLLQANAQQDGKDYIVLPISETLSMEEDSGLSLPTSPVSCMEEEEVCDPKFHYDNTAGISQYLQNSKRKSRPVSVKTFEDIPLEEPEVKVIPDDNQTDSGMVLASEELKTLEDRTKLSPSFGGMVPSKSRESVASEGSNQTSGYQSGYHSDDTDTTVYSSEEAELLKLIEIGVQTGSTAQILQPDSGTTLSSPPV
Description: Inhibition of KDR measured as pGAT-biotin peptide phosphorylation by HTRF assay

Row | IC50 [1] [µM] | IC50 [2] [µM] | IC50 [3] [µM] | SMILES
1 | 45.9 | – | – | COc1cc2c(cc1OC)Sc1nc(C)nc(Nc3ccc(F)c(Cl)c3)c1NC2
2 | 0.7 | 1.8 | > 10 | COc1cc2c(cc1OC)Oc1ncnc(Oc3cccc(Br)c3)c1NC2
3 | 0.2 | 0.9 | 2 | COc1cc2c(cc1OC)Nc1ncnc(NCc3ccccc3)c1NC2
4 | 14.5 | – | – | COc1cc2c(cc1OC)Sc1nc(C)nc(Nc3ccc4[nH]cnc4c3)c1NC2
5 | 1.3 | 1.2 | > 10 | COc1cc2c(cc1OC)Oc1ncnc(Sc3cccc(Br)c3)c1NC2
6 | 8.2 | – | – | COc1cc2c(cc1OC)Sc1ncnc(Nc3ccc(F)c(Cl)c3)c1NC2
7 | 15.2 | – | – | COc1cc2c(cc1OC)Sc1nc(C)nc(Nc3ccc4ncsc4c3)c1NC2
8 | 7.1 | 7.6 | > 10 | COc1cc2c(cc1OC)Oc1ncnc(Nc3ccc(F)cc3)c1NC2
9 | > 100 | – | – | COc1cc2c(cc1OC)Sc1ncnc(N(C)c3cccc(Br)c3)c1NC2
10 | > 100 | – | > 10 | COc1cc2c(cc1OC)Oc1nc(C)nc(Nc3cccc(Cl)c3F)c1NC2
11 | 1.2 | 6.1 | – | COc1cc2c(cc1OC)Oc1ncnc(Oc3cccc(Br)c3)c1N(C)C2
12 | 16.2 | – | – | COc1cc2c(cc1OC)Sc1nc(C)nc(Nc3ccc4c(c3)CN=N4)c1NC2
13 | 24.6 | – | – | COc1cc2c(cc1OC)Sc1nc(C)nc(Nc3ccc4c[nH]nc4c3)c1NC2
14 | 1.1 | 3.9 | – | COc1cc2c(cc1OC)Oc1ncnc(Nc3cc(Cl)ccc3F)c1NC2
15 | > 100 | – | – | COc1cc2c(cc1OC)Sc1ncnc(Nc3ccc4ncsc4c3)c1NC2
16 | 10.8 | – | > 10 | COc1cc2c(cc1OC)Oc1ncnc(Oc3ccc(F)c(Cl)c3)c1N(C)C2
17 | 3.2 | 0.9 | – | C#Cc1cccc(Nc2ncnc3c2NCc2cc(OC)c(OC)cc2O3)c1
18 | 1.6 | – | – | COc1cc2c(cc1OC)Sc1ncnc(Sc3cccc(Br)c3)c1NC2
19 | > 100 | – | – | COc1cc2c(cc1OC)Sc1nc(C)nc(Nc3ccc(Cl)c(C)c3)c1NC2
20 | 14.1 | – | – | COc1cc2c(cc1OC)Sc1ncnc(Nc3ccc4c[nH]nc4c3)c1NC2
21 | 17 | – | – | COc1cc2c(cc1OC)Sc1nc(C)nc(Nc3ccc4ccccc4c3)c1NC2
22 | 1.5 | – | – | COc1cc2c(cc1OC)Nc1ncnc(Nc3cccc(Br)c3)c1NC2

Row | IC50 [1] [µM] | IC50 [2] [µM] | IC50 [3] [µM] | SMILES
23 | 8.7 | > 100 | > 10 | COc1cc2c(cc1OC)Oc1ncnc(Nc3ccc(Br)cc3)c1NC2
24 | 0.3 | 4.6 | – | COc1cc2c(cc1OC)Oc1ncnc(Nc3cccc(Cl)c3F)c1NC2
25 | – | 0.7 | – | COc1cc2c(cc1OC)Oc1ncnc(Nc3ccc(F)c(Cl)c3)c1NC2
26 | 27 | – | – | COc1cc2c(cc1OC)Sc1ncnc(N(C)c3cccc(Cl)c3)c1NC2
27 | > 100 | – | – | COc1cc2c(cc1OC)Sc1nc(C)nc(Nc3cccc(Cl)c3F)c1NC2
28 | 4.6 | – | – | COc1cc2c(cc1OC)Oc1ncnc(Oc3cccc(Cl)c3F)c1NC2
29 | 5.9 | – | – | COc1cc2c(cc1OC)Sc1ncnc(Nc3cccc(Br)c3)c1NC2
30 | 0.15 | 0.5 | 2 | COc1cc2c(cc1OC)Nc1ncnc(N[C@H](C)c3ccccc3)c1NC2
31 | 1.2 | – | > 10 | COc1cc2c(cc1OC)Oc1ncnc(Nc3ccc4c[nH]nc4c3)c1NC2
32 | 1 | 2.4 | > 10 | COc1cc2c(cc1OC)Oc1ncnc(Sc3cccc(Cl)c3)c1NC2
33 | 62.9 | – | – | COc1cc2c(cc1OC)Sc1ncnc(Nc3cccc(Cl)c3F)c1NC2
34 | 21.7 | – | – | COc1cc2c(cc1OC)Sc1ncnc(Oc3cccc(Br)c3)c1NC2
35 | 7.4 | 4.4 | > 10 | COc1cc2c(cc1OC)Oc1ncnc(Nc3cccc(C)c3)c1NC2
36 | 0.3 | 0.5 | > 10 | COc1cc2c(cc1OC)Oc1ncnc(Nc3cccc(Br)c3)c1NC2
37 | 2.9 | – | – | COc1cc2c(cc1OC)Sc1ncnc(Sc3cccc(Cl)c3)c1NC2
38 | 30.7 | – | – | COc1cc2c(cc1OC)Sc1nc(C)nc(Nc3cccc(Br)c3)c1NC2
39 | 19.3 | – | – | COc1cc2c(cc1OC)Sc1ncnc(Oc3cccc(Cl)c3F)c1NC2
40 | 0.8 | 11.7 | 2 | COc1cccc(CNc2ncnc3c2NCc2cc(OC)c(OC)cc2N3)c1
41 | 0.3 | 1.6 | 2 | COc1cc2c(cc1OC)Nc1ncnc(NCc3ccc(F)c(Cl)c3)c1NC2
42 | 0.5 | 2.3 | > 10 | COc1cc2c(cc1OC)Oc1ncnc(Nc3ccc4ccccc4c3)c1NC2
43 | > 100 | – | – | COc1cc2c(cc1OC)Sc1nc(C)nc(Nc3ccc(C)c(Br)c3)c1NC2
44 | 5.6 | – | > 10 | COc1cc2c(cc1OC)Oc1ncnc(Nc3ccc4ncsc4c3)c1NC2
